The text below walks through data of patent US7763602B2, “Pyrrole derivatives as antimycobacterial compounds” (priority 2002, dated 2010).

Each structure is given as a SMILES string. Values after ≈ are worked out from the molar mass of the structure shown.

In the first experiment the test system is M. tuberculosis clinical isolates, resistant. Put plainly: microbe, parasite or virus in culture. The format is cell-based, Mycobacterium tuberculosis. Conditions: Mycobacterium tuberculosis, read-out: MIC (μg/ml) against Clinical isolates Resistant.
For the compound `Cc1c(CN2CCN(c3ccc(F)cc3)CC2)cc(-c2ccccc2)n1-c1ccc(F)cc1F` [compound 51, 1-{[1-(2,4-difluorophenyl)-2-methyl-5-phenylpyrrol-3-yl]methyl}-4-(4-fluorophenyl)piperazine], the MIC is above 16 µg/mL.
Same read-out and setting: in the case of `Cc1cc(CN2CCN(c3ccc(F)cc3)CC2)c(-c2ccccc2)n1-c1ccc(F)cc1F` [compound 55, 1-{[1-(2,4-difluorophenyl)-5-methyl-2-phenylpyrrol-3-yl]methyl}-4-(4-fluorophenyl) piperazine] it was above 16 µg/mL; in that of `COc1ccccc1N1CCN(Cc2cc(C)n(-c3ccc(F)cc3F)c2-c2ccccc2)CC1` [compound 56, 1-{[1-(2,4-difluorophenyl)-5-methyl-2-phenylpyrrol-3-yl]methyl}-4-(2-methoxyphenyl) piperazine], 8 to 16 µg/mL (≈ 16.9 to 33.8 µM).
On to `Cc1c(CN2CCN(c3ccc(F)cc3)CC2)cc(-c2ccc(Cl)cc2)n1-c1ccc(Cl)cc1` [Compound No. 1, 1-{[1,5-bis(4-chlorophenyl)-2-methylpyrrol-3-yl]methyl}-4-(4-fluorophenyl) piperazine], for which the MIC fell in the range of 2 to 4 µg/mL (≈ 4.04 to 8.09 µM).
On to `CO[C@H]1/C=C/O[C@@]2(C)Oc3c(C)c(O)c4c(O)c(c(/C=N/N5CCN(C)CC5)c(O)c4c3C2=O)NC(=O)/C(C)=C\C=C\[C@H](C)[C@H](O)[C@@H](C)[C@@H](O)[C@@H](C)[C@H](OC(C)=O)[C@@H]1C` [Rifampicin, reference compound], for which the MIC was 4 to 16 µg/mL (≈ 4.86 to 19.4 µM).
On to `COc1ccccc1N1CCN(Cc2cc(-c3ccccc3)n(-c3ccc(F)cc3F)c2C)CC1` [compound 52, 1-{[1-(2,4-difluorophenyl)-2-methyl-5-phenylpyrrol-3-yl]methyl}-4-(2-methoxyphenyl)piperazine], for which the MIC is 8 to 16 µg/mL (≈ 16.9 to 33.8 µM).
With `Cc1cc(CN2CCN(c3ccccn3)CC2)c(-c2ccccc2)n1-c1ccc(F)cc1F` [compound 58, 1-{[1-(2,4-difluorophenyl)-5-methyl-2-phenylpyrrol-3-yl]methyl}-4-(2-pyridyl) piperazine], the MIC fell in the range of 8 to 16 µg/mL (≈ 18 to 36 µM).
For `Cc1c(CN2CCN(c3cccc(C(F)(F)F)c3)CC2)cc(-c2ccccc2)n1-c1ccc(F)cc1F` [compound 53, 1-{[1-(2,4-difluorophenyl)-2-methyl-5-phenylpyrrol-3-yl]methyl}-4-(3-trifluoromethylphenyl)piperazine], the MIC is above 16 µg/mL.

The experiment is the same for the next values; noted with them: Table I; agar dilution.
Take `Cc1c(CN2CCCC2)cc(-c2ccccc2)n1NC(=O)c1ccncc1` [compound 19, N-[2-methyl-5-phenyl-3-(pyrrolidinylmethyl)pyrrolyl]-4-pyridylcarboxamide]: the “MIC (μg/ml) against Clinical isolates Resistant” value (“MIC (μg/ml)” for short) was above 16.0 µg/mL.
For `Cc1c(CN2CCN(C(c3ccccc3)c3ccccc3)CC2)cc(-c2ccc(Cl)cc2)n1-c1ccc(F)cc1F` [compound 48, 1-{[1-(2,4-difluorophenyl)-5-(4-chlorophenyl)-2-methylpyrrol-3-yl]methyl}-4-(4-diphenylmethyl)piperazine], the “MIC (μg/ml)” value is above 16.0 µg/mL.
`Cc1c(CN2CCN(Cc3ccc4c(c3)OCO4)CC2)cc(-c2ccc(Cl)cc2)n1-c1ccc(Cl)cc1` [Compound No. 8, 5-[(4-{[1,5-bis(4-chlorophenyl)-2-methylpyrrol-3-yl]methyl}piperazinyl)methyl]-2H-benzo[d]1,3-dioxolane]: the “MIC (μg/ml)” value is 1.0 to 4.0 µg/mL.
Same read-out and setting: in the case of `Cc1c(CN2CCN(Cc3ccc4c(c3)OCO4)CC2)cc(-c2ccccc2)n1NC(=O)c1cnccn1` [compound 29, N-(3-{[4-(2H-benzo[d]1,3-dioxolen-5-ylmethyl)piperazinyl]methyl}-2-methyl-5-phenylpyrrolyl)pyrazin-2-ylcarboxamide] it was above 16.0 µg/mL; in that of `Cc1c(CN2CCSCC2)cc(-c2ccccc2)n1NC(=O)c1ccncc1` [compound 21, N-[2-methyl-5-phenyl-3-(1,4-thiazaperhydroin-4-ylmethyl)pyrrolyl]-4-pyridyl carboxamide], 1.0 to 4.0 µg/mL; in that of `Cc1c(CN2CCSCC2)cc(-c2ccc(Cl)cc2)n1NC(=O)c1ccncc1` [compound 89, N-[5-(4-chlorophenyl)-2-methyl-3-(1,4-thiazaperhydroin-4-ylmethyl)pyrrolyl]-4-pyridylcarboxamide], 4.0 to 8.0 µg/mL.
Consider `COc1ccccc1N1CCN(Cc2cc(-c3ccc(Cl)cc3)n(NC(=O)c3cnccn3)c2C)CC1` [compound 38, N-(5-(4-chlorophenyl)-3-{[4-(2-methoxyphenyl)piperazinyl]methyl}-2-methylpyrrolyl)pyrazin-2-ylcarboxamide], for which the “MIC (μg/ml)” value was above 16.0 µg/mL.
Take `Cc1c(CN2CCN(C(c3ccccc3)c3ccccc3)CC2)cc(-c2ccccc2)n1NC(=O)c1cnccn1` [compound 30, N-(3-{[4-(diphenylmethyl)piperazinyl]methyl}-2-methyl-5-phenylpyrrolyl)-pyrazin-2-ylcarboxamide]: the “MIC (μg/ml)” value fell in the range of 4.0 to 16.0 µg/mL.
As to `Cc1c(CN2CCN(c3ccccn3)CC2)cc(-c2ccccc2)n1NC(=O)c1cnccn1` [compound 28, N-(3-{[4-(2-pyridyl)piperazinyl]methyl}-2-methyl-5-phenylpyrrolyl)pyrazin-2-ylcarboxamide], the “MIC (μg/ml)” value lay in the range of 4.0 to 16.0 µg/mL.
As for `Cc1c(CN2CCN(c3ccccn3)CC2)cc(-c2ccccc2)n1NC(=O)c1ccncc1` [compound 14, N-(3-{[4-(2-pyridyl)piperazinyl]methyl}-2-methyl-5-phenylpyrrolyl)-4-pyridylcarboxamide], the “MIC (μg/ml)” value lay within 4.0 to 8.0 µg/mL.
Turning to `Cc1cc(CN2CCN(c3cccc(C(F)(F)F)c3)CC2)c(-c2ccc(Cl)cc2)n1NC(=O)c1cnccn1` [compound 43, N-(2-(4-chlorophenyl)-3-{[4-(3-trifluoromethylphenyl)piperazinyl]methyl}-5-methylpyrrolyl)pyrazin-2-ylcarboxamide], the “MIC (μg/ml)” value is above 16.0 µg/mL.
On the same count and under the same terms, in the case of `COc1ccccc1N1CCN(Cc2cc(-c3ccccc3)n(NC(=O)c3ccncc3)c2C)CC1` [compound 13, N-(3-{[4-(2-methoxyphenyl)piperazinyl]methyl}-2-methyl-5-phenylpyrrolyl)-4-pyridylcarboxamide] it was 1.0 to 2.0 µg/mL; in that of `COc1ccccc1N1CCN(Cc2cc(C)n(-c3cccc4ccccc34)c2-c2ccc(Cl)cc2)CC1` [compound 63, 1-{[2-(4-chlorophenyl)-5-methyl-1-naphthylpyrrol-3-yl]methyl}-4-(2-methoxyphenyl)piperazine], 4.0 to 16.0 µg/mL; in that of `Cc1cc(CN2CCN(Cc3ccc4c(c3)OCO4)CC2)c(-c2ccccc2)n1NC(=O)c1cnccn1` [compound 35, N-(3-{[4-(2H-benzo[3,4-d]1,3-dioxolan-5-ylmethyl)piperazinyl]methyl}-5-methyl-2-phenylpyrrolyl)pyrazin-2-ylcarboxamide], above 16.0 µg/mL.
Still for that read-out and setting: in the case of `Cc1cc(CN2CCN(c3ccc(F)cc3)CC2)c(-c2ccc(Cl)cc2)n1NC(=O)c1cnccn1` [compound 41, N-(2-(4-chlorophenyl)-3-{[4-(4-fluorophenyl)piperazinyl]methyl}-5-methylpyrrolyl)pyrazin-2-ylcarboxamide] it was above 16.0 µg/mL; in that of `Cc1cc(CN2CCN(C(c3ccccc3)c3ccccc3)CC2)c(-c2ccccc2)n1NC(=O)c1cnccn1` [compound 36, N-(3-{[4-(diphenylmethyl)piperazinyl]methyl}-5-methyl-2-phenylpyrrolyl) pyrazin-2-ylcarboxamide], 1.0 to 4.0 µg/mL.
`Cc1c(CN2CCN(c3cccc(C(F)(F)F)c3)CC2)cc(-c2ccc(Cl)cc2)n1-c1cccc2ccccc12` [compound 60, 1-{[5-(4-chlorophenyl)-2-methyl-1-naphthylpyrrol-3-yl]methyl}-4-(3-trifluoromethylphenyl)piperazine]: the “MIC (μg/ml)” value fell in the range of 4.0 to 16.0 µg/mL.
The same measure, in the same setting: in the case of `Cc1c(CN2CCS(=O)(=O)CC2)cc(-c2ccccc2)n1-c1ccccc1` [compound 88] it was 2.0 to 8.0 µg/mL.
Regarding `COc1ccccc1N1CCN(Cc2cc(-c3ccccc3)n(NC(=O)c3cnccn3)c2C)CC1` [compound 26, N-(3-{[4-(2-methoxyphenyl)piperazinyl]methyl}-2-methyl-5-phenylpyrrolyl) pyrazin-2-ylcarboxamide], the “MIC (μg/ml)” value was in the range of 4.0 to 16.0 µg/mL.
As to `COc1ccccc1N1CCN(Cc2cc(C)n(NC(=O)c3cnccn3)c2-c2ccccc2)CC1` [compound 32, N-(3-{[4-(2-methoxyphenyl)piperazinyl]methyl}-5-methyl-2-phenylpyrrolyl) pyrazin-2-ylcarboxamide], the “MIC (μg/ml)” value is above 16.0 µg/mL.
Turning to `CCC(CO)n1c(C)c(CN2CCSCC2)c(CO)c1-c1ccccc1` (centres unmarked) [compound 90, 2-[3-(hydroxymethyl)-5-methyl-2-phenyl-4-(1,4-thiazaperhydroin-4-ylmethyl)-pyrrolyl]butan-1-ol], the “MIC (μg/ml)” value is above 16.0 µg/mL.
As to `Cc1c(CN2CCN(c3cccc(C(F)(F)F)c3)CC2)cc(-c2ccccc2)n1NC(=O)c1cnccn1` [compound 27, N-(3-{[4-(3-trifluoromethylphenyl)piperazinyl]methyl}-2-methyl-5-phenylpyrrolyl)pyrazin-2-ylcarboxamide], the “MIC (μg/ml)” value came out at 8.0 µg/mL (≈ 15.4 µM).
For the compound `COc1ccccc1N1CCN(Cc2cc(-c3ccc(Cl)cc3)n(-c3cccc4ccccc34)c2C)CC1` [compound 59, 1-{[5-(4-chlorophenyl)-2-methyl-1-naphthylpyrrol-3-yl]methyl}-4-(2-methoxyphenyl)piperazine], the “MIC (μg/ml)” value is above 16.0 µg/mL.
Take `Cc1c(CN2CCN(Cc3ccc4c(c3)OCO4)CC2)cc(-c2ccc(Cl)cc2)n1-c1cccc2ccccc12` [compound 62, 5-[(4-{[5-(4-chlorophenyl)-2-methyl-1-naphthylpyrrol-3-yl]methyl}-piperazinyl)methyl]-2H-benzo[d]1,3-dioxolane]: the “MIC (μg/ml)” value was above 16.0 µg/mL.
